In PubChem BioAssay (NCI):
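Where inhibition never reached the appropriate level, the endpoint shown equals the highest concentration tested. Otherwise, values were interpolated linearly from a five-concentration, 48-hour dose response in 96-well plates. The concentration for 50% growth inhibition is given as GI50. Definition used: TGI = concentration required for complete inhibition of growth.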

Key:
Assay in all cases: inhibition of tumour cell growth, NCI panel, 48 h; in the data active = GI50 below about 0.43 µM; inactive = the rest
ACHN renal = test system: ACHN renal
TK-10 renal = test system: TK-10 renal
OVCAR-3 ovarian = test system: OVCAR-3 ovarian
M14 melanoma = test system: M14 melanoma
SW-620 colon = test system: SW-620 colon
SF-268 CNS = test system: SF-268 CNS
NCI-H522 lung = test system: NCI-H522 lung
MDA-MB-435 = test system: MDA-MB-435
EKVX NSCLC = test system: EKVX NSCLC
786-0 renal = test system: 786-0 renal
PC-3 prostate = test system: PC-3 prostate
DU-145 prostate = test system: DU-145 prostate
NCI/ADR-RES ovarian = test system: NCI/ADR-RES ovarian
HCT-116 colon = test system: HCT-116 colon
UACC-257 melanoma = test system: UACC-257 melanoma
MDA-MB-231 breast = test system: MDA-MB-231 breast
OVCAR-5 ovarian = test system: OVCAR-5 ovarian
T-47D breast = test system: T-47D breast
SK-MEL-28 melanoma = test system: SK-MEL-28 melanoma
U251 CNS = test system: U251 CNS
SK-MEL-5 melanoma = test system: SK-MEL-5 melanoma
SN12C renal = test system: SN12C renal
HCT-15 colon = test system: HCT-15 colon
CAKI-1 renal = test system: CAKI-1 renal
K-562 leukemia = test system: K-562 leukemia
LOX IMVI melanoma = test system: LOX IMVI melanoma
NCI-H460 lung = test system: NCI-H460 lung
HCC-2998 colon = test system: HCC-2998 colon
SNB-19 CNS = test system: SNB-19 CNS
A549 NSCLC = test system: A549 NSCLC
HOP-62 NSCLC = test system: HOP-62 NSCLC
MOLT-4 leukemia = test system: MOLT-4 leukemia
OVCAR-8 ovarian = test system: OVCAR-8 ovarian
SR leukemia = test system: SR leukemia
HT29 colon = test system: HT29 colon
KM12 colon = test system: KM12 colon
SK-OV-3 ovarian = test system: SK-OV-3 ovarian
IGROV1 ovarian = test system: IGROV1 ovarian
MALME-3M melanoma = test system: MALME-3M melanoma
COLO 205 colon = test system: COLO 205 colon
NCI-H23 lung = test system: NCI-H23 lung
SK-MEL-2 melanoma = test system: SK-MEL-2 melanoma
SF-295 CNS = test system: SF-295 CNS
UO-31 renal = test system: UO-31 renal
HS 578T breast = test system: HS 578T breast
MCF7 breast = test system: MCF7 breast
CCRF-CEM leukemia = test system: CCRF-CEM leukemia
RPMI-8226 leukemia = test system: RPMI-8226 leukemia
UACC-62 melanoma = test system: UACC-62 melanoma
NCI-H226 lung = test system: NCI-H226 lung
A498 renal = test system: A498 renal
OVCAR-4 ovarian = test system: OVCAR-4 ovarian
HL-60(TB) leukemia = test system: HL-60(TB) leukemia
SNB-75 CNS = test system: SNB-75 CNS
BT-549 breast = test system: BT-549 breast
RXF 393 renal = test system: RXF 393 renal
HOP-92 NSCLC = test system: HOP-92 NSCLC
SF-539 CNS = test system: SF-539 CNS

C=CC(C=O)C1(O)CCOC(=O)/C1=C\N (stereo not given)
> 100 µM: TGI (ACHN renal) | TGI (TK-10 renal) | TGI (OVCAR-3 ovarian) | TGI (M14 melanoma) | TGI (SW-620 colon) | TGI (SF-268 CNS) | TGI (NCI-H522 lung) | TGI (MDA-MB-435) | TGI (EKVX NSCLC) | TGI (786-0 renal) | TGI (PC-3 prostate) | TGI (DU-145 prostate) | TGI (NCI/ADR-RES ovarian) | TGI (HCT-116 colon) | TGI (UACC-257 melanoma) | TGI (MDA-MB-231 breast) | TGI (OVCAR-5 ovarian) | TGI (T-47D breast) | TGI (SK-MEL-28 melanoma) | TGI (U251 CNS) | TGI (SK-MEL-5 melanoma) | TGI (SN12C renal) | TGI (HCT-15 colon) | TGI (CAKI-1 renal) | TGI (K-562 leukemia) | TGI (LOX IMVI melanoma) | TGI (NCI-H460 lung) | TGI (HCC-2998 colon) | TGI (SNB-19 CNS) | TGI (A549 NSCLC) | TGI (HOP-62 NSCLC) | TGI (MOLT-4 leukemia) | TGI (OVCAR-8 ovarian) | TGI (SR leukemia) | TGI (HT29 colon) | TGI (KM12 colon) | TGI (SK-OV-3 ovarian) | TGI (IGROV1 ovarian) | TGI (MALME-3M melanoma) | TGI (COLO 205 colon) | TGI (NCI-H23 lung) | TGI (SK-MEL-2 melanoma) | TGI (SF-295 CNS) | TGI (UO-31 renal) | TGI (HS 578T breast) | TGI (MCF7 breast) | TGI (CCRF-CEM leukemia) | TGI (RPMI-8226 leukemia) | TGI (UACC-62 melanoma) | TGI (NCI-H226 lung)
inactive: GI50 (ACHN renal) > 100 µM | GI50 (TK-10 renal) > 100 µM | GI50 (OVCAR-3 ovarian) > 100 µM | GI50 (M14 melanoma) > 100 µM | GI50 (SW-620 colon) > 100 µM | GI50 (SF-268 CNS) > 100 µM | GI50 (NCI-H522 lung) > 100 µM | GI50 (MDA-MB-435) > 100 µM | GI50 (EKVX NSCLC) > 100 µM | GI50 (786-0 renal) > 100 µM | GI50 (PC-3 prostate) > 100 µM | GI50 (DU-145 prostate) > 100 µM | GI50 (NCI/ADR-RES ovarian) > 100 µM | GI50 (HCT-116 colon) > 100 µM | GI50 (UACC-257 melanoma) > 100 µM | GI50 (MDA-MB-231 breast) > 100 µM | GI50 (OVCAR-5 ovarian) > 100 µM | GI50 (T-47D breast) > 100 µM | GI50 (SK-MEL-28 melanoma) > 100 µM | GI50 (U251 CNS) > 100 µM | GI50 (SK-MEL-5 melanoma) 62.4 µM | GI50 (SN12C renal) > 100 µM | GI50 (HCT-15 colon) > 100 µM | GI50 (CAKI-1 renal) > 100 µM | GI50 (K-562 leukemia) > 100 µM | GI50 (LOX IMVI melanoma) > 100 µM | GI50 (NCI-H460 lung) > 100 µM | GI50 (HCC-2998 colon) > 100 µM | GI50 (SNB-19 CNS) > 100 µM | GI50 (A549 NSCLC) > 100 µM | GI50 (HOP-62 NSCLC) > 100 µM | GI50 (MOLT-4 leukemia) > 100 µM | GI50 (OVCAR-8 ovarian) > 100 µM | GI50 (SR leukemia) 30.7 µM | GI50 (HT29 colon) > 100 µM | GI50 (KM12 colon) > 100 µM | GI50 (SK-OV-3 ovarian) > 100 µM | GI50 (IGROV1 ovarian) > 100 µM | GI50 (MALME-3M melanoma) > 100 µM | GI50 (COLO 205 colon) > 100 µM | GI50 (NCI-H23 lung) 52.4 µM | GI50 (SK-MEL-2 melanoma) > 100 µM | GI50 (SF-295 CNS) > 100 µM | GI50 (UO-31 renal) > 100 µM | GI50 (HS 578T breast) 7.57 µM | GI50 (MCF7 breast) > 100 µM | GI50 (CCRF-CEM leukemia) > 100 µM | GI50 (RPMI-8226 leukemia) > 100 µM | GI50 (UACC-62 melanoma) > 100 µM | GI50 (NCI-H226 lung) > 100 µM

O=C(CCCN1CCOCC1)Nc1ccc(Cn2nnc3c2C(=O)c2nnn(Cc4ccc(NC(=O)CCCN5CCOCC5)cc4)c2C3=O)cc1
43.6 µM: TGI (M14 melanoma)
3.59 µM: TGI (NCI-H522 lung) | TGI (SNB-19 CNS)
7.48 µM: TGI (RPMI-8226 leukemia)
2.43 µM: TGI (COLO 205 colon)
38.9 µM: TGI (RXF 393 renal)
4.62 µM: TGI (IGROV1 ovarian)
4.85 µM: TGI (MOLT-4 leukemia)
5.79 µM: TGI (HCC-2998 colon)
3.67 µM: TGI (SN12C renal)
4.15 µM: TGI (SK-MEL-2 melanoma)
18.4 µM: TGI (BT-549 breast)
6.3 µM: TGI (LOX IMVI melanoma)
active: GI50 (OVCAR-3 ovarian) 0.348 µM
8.9 µM: TGI (HT29 colon)
11.3 µM: TGI (HCT-116 colon)
3.74 µM: TGI (U251 CNS)
5.86 µM: TGI (UACC-62 melanoma)
7.86 µM: TGI (SR leukemia)
2.79 µM: TGI (MALME-3M melanoma)
5.04 µM: TGI (HOP-92 NSCLC)
7.76 µM: TGI (HS 578T breast)
3.08 µM: TGI (MDA-MB-435)
1.54 µM: TGI (OVCAR-3 ovarian)
3.23 µM: TGI (UACC-257 melanoma)
4.71 µM: TGI (SF-539 CNS)
4.91 µM: TGI (HL-60(TB) leukemia)
3.55 µM: TGI (SK-MEL-5 melanoma)
inactive: GI50 (A498 renal) > 100 µM | GI50 (ACHN renal) > 100 µM | GI50 (TK-10 renal) > 100 µM | GI50 (OVCAR-4 ovarian) 1.25 µM | GI50 (M14 melanoma) 4.59 µM | GI50 (SW-620 colon) 2.85 µM | GI50 (HL-60(TB) leukemia) 1.51 µM | GI50 (SNB-75 CNS) 1.83 µM | GI50 (SF-268 CNS) 3.21 µM | GI50 (NCI-H522 lung) 1.38 µM | GI50 (BT-549 breast) 4.68 µM | GI50 (MDA-MB-435) 1.65 µM | GI50 (786-0 renal) > 100 µM | GI50 (PC-3 prostate) 3.67 µM | GI50 (DU-145 prostate) 7.3 µM | GI50 (NCI/ADR-RES ovarian) > 100 µM | GI50 (HCT-116 colon) 3 µM | GI50 (UACC-257 melanoma) 1.7 µM | GI50 (OVCAR-5 ovarian) > 100 µM | GI50 (RXF 393 renal) 4.33 µM | GI50 (SK-MEL-28 melanoma) 3.93 µM | GI50 (U251 CNS) 1.95 µM | GI50 (SK-MEL-5 melanoma) 1.52 µM | GI50 (SN12C renal) 1.79 µM | GI50 (HCT-15 colon) > 100 µM | GI50 (CAKI-1 renal) > 100 µM | GI50 (K-562 leukemia) 4.28 µM | GI50 (LOX IMVI melanoma) 2.01 µM | GI50 (NCI-H460 lung) 2.07 µM | GI50 (HCC-2998 colon) 2.62 µM | GI50 (SNB-19 CNS) 1.84 µM | GI50 (A549 NSCLC) > 100 µM | GI50 (HOP-62 NSCLC) > 100 µM | GI50 (MOLT-4 leukemia) 1.61 µM | GI50 (OVCAR-8 ovarian) 3.78 µM | GI50 (SR leukemia) 2.05 µM | GI50 (HT29 colon) 3.31 µM | GI50 (KM12 colon) 6.99 µM | GI50 (SK-OV-3 ovarian) > 100 µM | GI50 (IGROV1 ovarian) 1.95 µM | GI50 (MALME-3M melanoma) 1.21 µM | GI50 (COLO 205 colon) 0.982 µM | GI50 (NCI-H23 lung) 2.33 µM | GI50 (SK-MEL-2 melanoma) 2.04 µM | GI50 (SF-295 CNS) > 100 µM | GI50 (UO-31 renal) > 100 µM | GI50 (HS 578T breast) 2.79 µM | GI50 (MCF7 breast) 1.03 µM | GI50 (HOP-92 NSCLC) 2.54 µM | GI50 (CCRF-CEM leukemia) 1.81 µM | GI50 (RPMI-8226 leukemia) 2.18 µM | GI50 (UACC-62 melanoma) 2.06 µM | GI50 (SF-539 CNS) 2.17 µM | GI50 (NCI-H226 lung) > 100 µM
6.32 µM: TGI (CCRF-CEM leukemia)
2.77 µM: TGI (MCF7 breast)
> 100 µM: TGI (A498 renal) | TGI (ACHN renal) | TGI (TK-10 renal) | TGI (SW-620 colon) | TGI (786-0 renal) | TGI (PC-3 prostate) | TGI (DU-145 prostate) | TGI (NCI/ADR-RES ovarian) | TGI (OVCAR-5 ovarian) | TGI (SK-MEL-28 melanoma) | TGI (HCT-15 colon) | TGI (CAKI-1 renal) | TGI (K-562 leukemia) | TGI (NCI-H460 lung) | TGI (A549 NSCLC) | TGI (HOP-62 NSCLC) | TGI (OVCAR-8 ovarian) | TGI (KM12 colon) | TGI (SK-OV-3 ovarian) | TGI (SF-295 CNS) | TGI (UO-31 renal) | TGI (NCI-H226 lung)
12.1 µM: TGI (SF-268 CNS)
2.51 µM: TGI (OVCAR-4 ovarian)
5.63 µM: TGI (NCI-H23 lung)
3.24 µM: TGI (SNB-75 CNS)
